Measured values from EP3858336A1, “AMORPHOUS SOLID DISPERSION OF 8-CHLORO-N-(4-(TRIFLUOROMETHOXY)PHENYL)QUINOLIN-2-AMINE” (ABIVAX, priority 2020, dated 2021).

What was measured:
[1] = Two-step dissolution / precipitation Fasted Human in-vitro model (Fassif); assay type: physicochemical; conditions: thermodynamic from solid, final pH = 6.5, 30min in FaSSGF pH1.2 + 120min in FaSSIF x2 pH6.5 / Sodium bicarbonate 90/10 v/v, 37°C, read-out: solubility (HPLC-UV dosage of supernatant), last measurement point
Description: (§1) ABX464 in its unique crystalline form and ABX464 :VA64 ASD (prepared according to example 1 above) were tested by using both Fasted and Fed Human in-vitro models (respectively named Fassif and Fessif models). These models simulate respectively fasted and fed state gastrointestinal fluids for dissolution testing.
For the Fasted in-vitro model, 11.4mg of ABX464:VA64 ASD (4.0mg equivalent ABX464) were weighed in 6 different vials. In all vials, 1ml of FaSSGF pH1.2 solution pre-heated at 37°C were added. Suspension were then vortexed at 37°C. After 15min vortex, suspension of the first vial was centrifuged 5min at 18000 rpm and filtered under 0.45µm filter (Millex LCR filter ref. SLCR0.13NK) for HPLC-UV dosage of supernatant. After 30min vortex, suspension of the second vial was centrifuged 5min at 18000 rpm and filtered under 0.45µm filter (Millex LCR filter ref. SLCR0.13NK) for HPLC-UV dosage of supernatant.
After 30min vortex, 1ml of FaSSIF x2 pH6.5 / Sodium bicarbonate 90/10 v/v pre-heated at 37°C was added on other 4 vials. Suspension were then vortexed at 37°C. After 15min vortex, suspension of the third vial was centrifuged 5min at 18000 rpm and filtered under 0.45µm filter (Millex LCR filter ref. SLCR0.13NK) for HPLC-UV dosage of supernatant. […]

[2] = Two-step dissolution / precipitation Fed Human in-vitro model (Fessif); assay type: physicochemical; conditions: thermodynamic from solid, final pH 5.0, 60min in FeSSGF pH3.0 + 120min in FeSSIF x3 pH5.0, 37°C, read-out: solubility (HPLC-UV dosage of supernatant), last measurement point
Description: as §1
For the Fed in-vitro model, 11.4mg of ABX464:VA64 ASD (4.0mg equivalent ABX464) were weighed in 7 different vials. In all vials, 1ml of FeSSGF pH3.0 solution pre-heated at 37°C were added. Suspension were then vortexed at 37°C. After 15min vortex, suspension of the first vial was centrifuged 5min at 18000 rpm and filtered under 0.45µm filter (Millex LCR filter ref. SLCR0.13NK) for HPLC-UV dosage of supernatant. After 30min vortex, suspension of the second vial was centrifuged 5min at 18000 rpm and filtered under 0.45µm filter (Millex LCR filter ref. SLCR0.13NK) for HPLC-UV dosage of supernatant. After 60min vortex, suspension of the third vial was centrifuged 5min at 18000 rpm and filtered under 0.45µm filter (Millex LCR filter ref. SLCR0.13NK) for HPLC-UV dosage of supernatant.
After 60min vortex, 0.5ml of FeSSIF x3 pH5.0 pre-heated at 37°C was added on other 4 vials. Suspension were then vortexed at 37°C. […]

solubility at 120 min [1]: 70 µg/mL | solubility at 120 min [2]: 508 µg/mL
SMILES: FC(F)(F)Oc1ccc(Nc2ccc3cccc(Cl)c3n2)cc1 [ABX464, 8-Chloro-N-(4-(trifluoromethoxy)phenyl)quinolin-2-amine]
